The text below walks through data of PMC9906756 (2023).

SMILES strings stand for the structures.

Common to all, as to test: luminescence titration
Assay [1] deals with T13 (DNA, single strand) TTTTTTTTTTTTT
Particulars: 100 mM KCl, 10 mM potassium phosphate, pH 7, 10 μM Ru-PDC3, per base, site size 1, Table S2 prints error 0.6.

Assay [2] deals with 22AG (DNA, G4) AGGGTTAGGGTTAGGGTTAGGG
The note with it: 100 mM KCl, 10 mM potassium phosphate; pH 7; 10 μM Ru-PDC3; per G4 strand; site size 0.5.

For assay [3], the system named is TBA (DNA, G4) GGTTGGTGTGGTTGG
Particulars: 100 mM KCl, 10 mM potassium phosphate; pH 7; 10 μM Ru-PDC3; per G4 strand; site size 0.5.

The subject of assay [4] is Pu24T (DNA, G4) TGAGGGTGGTGAGGGTGGGGAAGG
The note with it: 100 mM KCl, 10 mM potassium phosphate; pH 7; 10 μM Ru-PDC3; per G4 strand; site size 0.5.

Assay [5] concerns ds17 (DNA, duplex) CCAGTTCGTAGTAACCC/GGGTTACTACGAACTGG
The note with it: 100 mM KCl, 10 mM potassium phosphate, pH 7, 10 μM Ru-PDC3, per base pair, site size 1.

Assay [6] has as its system ss17 (DNA, single strand) CCAGTTCGTAGTAACCC
The note with it: 100 mM KCl, 10 mM potassium phosphate, pH 7, 10 μM Ru-PDC3, per base, site size 1.

In a further assay the test system is INTER (DNA, G4) TAGGGTTA
The note with it: 100 mM KCl, 10 mM potassium phosphate; pH 7; 10 μM Ru-PDC3; concentration as G4 strand equivalent; site size 0.5.

Assay [7] has as its system A13 (DNA, single strand) AAAAAAAAAAAAA
Particulars: 100 mM KCl, 10 mM potassium phosphate, pH 7, 10 μM Ru-PDC3, per base, site size 0.5, Table S2 prints 2.3±1.2 × 10^6.

Assay [8] has as its system K-ras (DNA, G4) AGGGCGGTGTGGGATAGGGAA
The note with it: 100 mM KCl, 10 mM potassium phosphate; pH 7; 10 μM Ru-PDC3; per G4 strand; site size 0.5.

With `C[n+]1cc(NC(=O)c2ccc3c(n2)c2nc(C(=O)Nc4cc5ccccc5[n+](C)c4)ccc2c2nc4c5cccnc5c5ncccc5c4nc32)cc2ccccc21.[Ru+2].c1cnc2c(c1)ccc1cccnc12.c1cnc2c(c1)ccc1cccnc12`, the Kb in assay [1] was 1.4 ± 0.5 × 10^6 M^-1; in assay [2], 2.2 ± 0.7 × 10^7 M^-1; in [3] it was 5.6 ± 1.7 × 10^6 M^-1; in [4], 2.6 ± 0.1 × 10^6 M^-1; in assay [5] it was 1.9 ± 0.3 × 10^6 M^-1; in assay [6] it was 1.3 ± 0.4 × 10^6 M^-1. The Kb is recorded as 1.4 ± 0.2 × 10^7 M^-1 with INTER (DNA, G4) TAGGGTTA; 2.2 ± 1.3 × 10^6 M^-1 in assay [7]; 1.4 ± 0.1 × 10^7 M^-1 in assay [8].
